# From patent publication US7402601B2, “Pharmaceuticals for the treatment of rejection reactions in organ transplantations” (Sanofi-Aventis Deutschland GmbH, priority 1991, dated 2008)
# Legend:
# [1] = in vivo; conditions: ip
# Method: Acute Toxicity after Intraperitoneal Administration
# The acute toxicity after intraperitoneal administration of the test substances was determined with NMRI mice (20 to 25 g) and SD rats (120 to 195 g). The test substance was suspended in a 1% strength sodium carboxymethyl-cellulose solution. The different dosages of the test substance were administered to the mice in a volume of 10 ml/kg of body weight and to the rats in a volume of 5 ml/kg of body weight. Per dosage, 10 animals were used. After 3 weeks, the acute toxicity was determined by the method of Litchfield and Wilcoxon.
# [2] = system: allophilic antibodies; experiment: Formation of allophilic antibodies after heart transplantation (Brown-Norway to Lewis rats), complement cytotoxicity on donor spleen cells, Trypan Blue exclusion; format: in vivo
# Method: The action of compound 2 on the formation of allophilic antibodies.
# Male Brown-Norway rats with a weight of 200 to 250 g are used as heart donors. The hearts are transplanted into male Lewis rats of the same weight. All rats are supplied with a standard diet and water and kept in an environment with 12 hours of light and darkness.
# […] The titer of allophilic antibodies in the blood of the recipient rats is determined by incubating various dilutions of the recipient blood with spleen cells of the donor rats (Brown-Norway rats) and rabbit complement. The cytotoxicity is determined by the Trypan Blue exclusion method. The p value for the antibodies is determined using the standard t-test and compared with the untreated control animals.
# Treatment with compound 2 begins on the 4th day after transplantation. 10 mg/kg of compound 2 in each case are administered i.p. once per day. The number of animals which are simultaneously treated is 5 (n=5). Treatment ends on the 17th day.
# [3] = system: naturally occurring xenophilic antibodies (NXA); experiment: Naturally occurring xenophilic antibodies (NXA) in non-sensitized rats, flow cytometry; format: in vivo; conditions: non-sensitized LEW rats, 10 mg/kg every day i.p., 11th day
# Method: 2 to 3 month-old rats (LEW) are intraperitoneally (i.p.) sensitized with 2×10^7 human peripheral blood lymphocytes. The i.p. administration of compound 2 starts 4 days before sensitization and ends 10 days after sensitization of the rats. Serum samples are taken from the tail vein and stored at −80° C.; the activity of complement is avoided by heat deactivation.
# The naturally occurring xenophilic antibodies (NXA) and the xenophilic antibodies induced by sensitization (SXA) are titrated and live human peripheral blood lymphocytes are added (45 min. at 20° C.). After intensive washing, FITC-labeled goat-anti-rat IgG or IgM antibodies are added and the binding to SXA or NXA is quantitatively determined by flow cytometry (FACScan, Becton Dickinson).
# The serum of male LEW rats contain NXA which bind to vital human peripheral blood lymphocytes, to be precise usually with an average IgM titer of 1:4 and an average IgG titer of less than 1:1. The rats (n=8) which are treated every day with 10 mg/kg of compound 2, show a 30% reduction in their IgG titer and a 50% reduction in their IgM titer on the 11th day.
smiles,measurement,setting,value
"Cc1oncc1C(=O)Nc1ccc(C(F)(F)F)cc1 [Compound 1, N-(4-trifluoromethyl)-5-methylisoxazole-4-carboxanilide]",LD50 at 3 weeks,"[1]; NMRI, mouse",185 mg/kg
same,LD50 at 3 weeks,"[1]; SD, rat",170 mg/kg
"C/C(O)=C(\C#N)C(=O)Nc1ccc(C(F)(F)F)cc1 [Compound 2, N-(4-trifluoromethylphenyl)-2-cyano-3-hydroxycrotonamide]",mean of the cytotoxicity values,"[2]; serum dilution 1:5, day 0 after transplantation (before treatment start on day 4), 10 mg/kg i.p. once per day",3%
same,mean of the cytotoxicity values,"[2]; serum dilution 1:5, day 4 after transplantation (treatment begins), 10 mg/kg i.p. once per day",63%
same,mean of the cytotoxicity values,"[2]; serum dilution 1:5, day 7 after transplantation, 10 mg/kg i.p. once per day from day 4",36%
same,mean of the cytotoxicity values,"[2]; serum dilution 1:5, day 11 after transplantation, 10 mg/kg i.p. once per day from day 4",19%
same,mean of the cytotoxicity values,"[2]; serum dilution 1:5, day 14 after transplantation, 10 mg/kg i.p. once per day from day 4",22%
same,mean of the cytotoxicity values,"[2]; serum dilution 1:5, day 17 after transplantation, 10 mg/kg i.p. once per day from day 4",11%
same,mean of the cytotoxicity values,"[2]; serum dilution 1:25, day 0 after transplantation (before treatment start on day 4), 10 mg/kg i.p. once per day",3%
same,mean of the cytotoxicity values,"[2]; serum dilution 1:25, day 4 after transplantation (treatment begins), 10 mg/kg i.p. once per day",58%
same,mean of the cytotoxicity values,"[2]; serum dilution 1:25, day 7 after transplantation, 10 mg/kg i.p. once per day from day 4",31%
same,mean of the cytotoxicity values,"[2]; serum dilution 1:25, day 11 after transplantation, 10 mg/kg i.p. once per day from day 4",16%
same,mean of the cytotoxicity values,"[2]; serum dilution 1:25, day 14 after transplantation, 10 mg/kg i.p. once per day from day 4",11%
same,mean of the cytotoxicity values,"[2]; serum dilution 1:25, day 17 after transplantation, 10 mg/kg i.p. once per day from day 4",6%
same,mean of the cytotoxicity values,"[2]; serum dilution 1:125, day 0 after transplantation (before treatment start on day 4), 10 mg/kg i.p. once per day",4%
same,mean of the cytotoxicity values,"[2]; serum dilution 1:125, day 4 after transplantation (treatment begins), 10 mg/kg i.p. once per day",34%
same,mean of the cytotoxicity values,"[2]; serum dilution 1:125, day 7 after transplantation, 10 mg/kg i.p. once per day from day 4",20%
same,mean of the cytotoxicity values,"[2]; serum dilution 1:125, day 11 after transplantation, 10 mg/kg i.p. once per day from day 4",9%
same,mean of the cytotoxicity values,"[2]; serum dilution 1:125, day 14 after transplantation, 10 mg/kg i.p. once per day from day 4",6%
same,mean of the cytotoxicity values,"[2]; serum dilution 1:125, day 17 after transplantation, 10 mg/kg i.p. once per day from day 4",5%
same,LD50 at 3 weeks,"[1]; NMRI, mouse",150 mg/kg
same,reduction in IgG titer (NXA),[3],30%
same,reduction in IgM titer (NXA),[3],50%
